Measured values: US8273775B2, “Non-steroidal brassinosteroid mimetic” (priority 2006, dated 2012)

System: gene expression in Col-0 seedling shoots
Experiment: Microarray analysis (ATH1 Affymetrix) after BL or abrasin treatment
Format: in vivo, Arabidopsis
Description: FIG. 14: Clustering of gene expression profiles by QT-clust analysis. Clusters illustrating the major patterns of the data sets. Points: BIK-30: 30 μM abrasin 30 min; BL-30: 1 μM brassinolide 30 min; DMSO-30: control DMSO 30 min; BIK-120: 30 μM abrasin 120 min; BL-120: 1 μM brassinolide 120 min; DMSO-120: control DMSO 120 min.
Col-0 seeds were germinated vertically on ½ MS medium for 7 days under 16 h light/8 h dark cycles. The seedlings were overlaid with liquid ½ MS medium containing 1 μM brassinolide (BL, Fuji Chemical Industries, Ltd., Toyama, Japan), 30 μM abrasin (BIK, ChemBridge Corporation) and DMSO and treated for 30 and 120 min. The shoot parts were collected for RNA isolation. All sampling points were performed in three independent experiments. RNA was extracted using RNeasy kit (Qiagene). […] total RNA per array was used to hybridise the ATH1 Affymetrix Arabidopsis arrays according to standard procedure. The overrepresentation analyses were performed using BiNGO software (Maere et al., 2005).
We performed a microarray analysis using the Arabidopsis whole genome chip (Affymetix) to determine whether abrasin activated the expression of BR-inducible genes at transcriptional level. Wild-type Col-0 seedlings were exposed to 1 μM BL, 30 μM ABRASIN and DMSO (mock-treatment) for two time points (30 min and 120 min) and the shoot parts were collected for RNA isolation. The analysis of the variance of the normalized gene expression data took in account the variability parameters affecting the expression level: type of hormone treatment, duration of treatment and the interaction between these two.

SMILES: O=C(O)CCC(=O)Nc1ccc(Br)cn1 [abrasin, 4-[(5-bromo-2-pyridinyl)amino]-4-oxobutanoic acid]
- Fold-change of gene AT2G42380 (bZIP transcription factor family protein) (30 min, 265877_at, Cluster 6): 1.65
- Fold-change of gene AT2G45080 (cyclin family protein) (30 min, 266124_at, Cluster 8): 0.77
- Fold-change AT1G04330 expressed protein (120 min): 4.41
- Fold-change AT1G05470 endonuclease/exonuclease/phosphatase family protein (120 min): 2.59
- Fold-change AT1G06520 Encodes a membrane associated mitochondrial localized protein (120 min): 2.28
- Fold-change AT1G06570 4-hydroxyphenylpyruvate dioxygenase (HPD) (120 min): 0.29
- Fold-change AT1G10550 xyloglucan:xyloglucosyl transferase (120 min): 1.66
- Fold-change AT1G12710 F-box family protein (120 min): 1.41
- Fold-change AT1G12750 rhomboid family protein (120 min): 1.60
- Fold-change AT1G14130 2-oxoglutarate-dependent dioxygenase (120 min): 2.47
- Fold-change AT1G14700 purple acid phosphatase (120 min): 0.47
- Fold-change AT1G16640 transcriptional factor B3 family protein (120 min): 2.20
- Fold-change AT1G17230 leucine-rich repeat family protein (120 min): 0.22
- Fold-change AT1G18020; AT1G17990 [AT1G18020, 12-oxophytodienoate reductase, (120 min): 1.78
- Fold-change AT1G19320 pathogenesis-related thaumatin family protein (120 min): 0.50
- Fold-change AT1G20350 mitochondrial import inner membrane translocase subunit (120 min): 2.67
- Fold-change AT1G21050 expressed protein (120 min): 0.14
- Fold-change AT1G21760 F-box family protein (120 min): 0.46
- Fold-change AT1G22360 UDP-glucoronosyl/UDP-glucosyl transferase family protein (120 min): 0.32
- Fold-change AT1G23080 auxin efflux carrier protein (PIN7) (120 min): 0.33
- Fold-change AT1G26800 zinc finger (C3HC4-type RING finger) family protein, (120 min): 4.39
- Fold-change AT1G27730 zinc finger (C2H2 type) family protein (120 min): 1.06
- Fold-change AT1G28130 encodes an IAA-amido synthase (120 min): 0.40
- Fold-change AT1G28190 expressed protein (120 min): 1.65
- Fold-change AT1G28480 glutaredoxin family protein (120 min): 3.97
- Fold-change AT1G31040 zinc-binding protein-related (120 min): 4.37
- Fold-change AT1G31310 hydroxyproline-rich glycoprotein family protein (120 min): 2.45
- Fold-change AT1G31770 ABC transporter family protein (120 min): 0.50
- Fold-change AT1G32190 expressed protein (120 min): 0.07
- Fold-change AT1G32690 expressed protein (120 min): 0.26
- Fold-change AT1G36940 expressed protein (120 min): 0.32
- Fold-change AT1G49780 U-box domain-containing protein (120 min): 0.56
- Fold-change AT1G53870; AT1G53890 [AT1G53870, expressed protein (120 min): 0.51
- Fold-change AT1G54050 17.4 kDa class III heat shock protein (HSP17.4-CIII) (120 min): 2.86
- Fold-change AT1G54200 expressed protein (120 min): 2.19
- Fold-change AT1G55920 serine O-acetyltransferase (120 min): 2.16
- Fold-change AT1G57560 myb family transcription factor (MYB50) (120 min): 2.65
- Fold-change AT1G59590 expressed protein (120 min): 2.08
- Fold-change AT1G59660 nucleoporin family proteinmily (120 min): 2.94
- Fold-change AT1G62300 WRKY family transcription factor (120 min): 0.71
- Fold-change AT1G63050 membrane bound O-acyl transferase (MBOAT) family protein (120 min): 0.27
- Fold-change AT1G66160 U-box domain-containing protein, (120 min): 1.91
- Fold-change AT1G66890 expressed protein (120 min): 0.14
- Fold-change AT1G68330 expressed protein (120 min): 2.78
- Fold-change AT1G68810 basic helix-loop-helix (bHLH) family protein (120 min): 0.41
- Fold-change AT1G69160 expressed protein (120 min): 0.33
- Fold-change AT1G70990 proline-rich family protein (120 min): 3.50
- Fold-change AT1G71030 Encodes a putative myb family transcription factor (120 min): 0.46
- Fold-change AT1G72060 expressed protein (120 min): 5.97
- Fold-change AT1G72180 leucine-rich repeat transmembrane protein kinase (120 min): 0.11
- Fold-change AT1G72800 nuM1-related, contains (120 min): 2.15
- Fold-change AT1G75270 dehydroascorbate reductase (120 min): 2.62
- Fold-change AT1G75500 nodulin MtN21 family protein (120 min): 0.37
- Fold-change AT1G76240 expressed protein, (120 min): 0.07
- Fold-change AT1G76410 zinc finger (C3HC4-type RING finger) (120 min): 0.16
- Fold-change AT1G79110 expressed protein (120 min): 0.45
- Fold-change AT1G79630 protein phosphatase 2C family protein (120 min): 0.35
- Fold-change AT1G80440 kelch repeat-containing F-box family protein (120 min): 2.89
- Fold-change AT2G01300 expressed protein (120 min): 3.12
- Fold-change AT2G01990 expressed protein, (120 min): 2.56
- Fold-change AT2G04240 zinc finger (C3HC4-type RING finger) family protein (120 min): 1.72
- Fold-change AT2G05540 glycine-rich protein (120 min): 0.54
- Fold-change AT2G12290; AT4G19700 [AT2G12290, expressed protein]; [AT4G19700, expressed protein] (120 min): 0.53
- Fold-change AT2G18010 auxin-responsive family protein (SAUR10) (120 min): 3.94
- Fold-change AT2G19800 expressed protein (120 min): 2.22
- Fold-change AT2G22860 phytosulfokines 2 (PSK2) (120 min): 0.19
- Fold-change AT2G23180 cytochrome P450, putative (120 min): 0.36
- Fold-change AT2G23320 WRKY family transcription factor (120 min): 1.19
- Fold-change AT2G26530 expressed protein (120 min): 1.99
- Fold-change AT2G26710 cytochrome p450 family (BAS1) (120 min): 2.26
- Fold-change AT2G28510 Dof-type zinc finger domain-containing protein (120 min): 1.19
- Fold-change AT2G29340 short-chain dehydrogenase/reductase (SDR) family protein (120 min): 3.73
- Fold-change AT2G29990 pyridine nucleotide-disulphide oxidoreductase family protein (120 min): 1.38
- Fold-change AT2G30070 potassium transporter (KUP1) (120 min): 0.22
- Fold-change AT2G31230 encodes a member of the ERF (ethylene response factor) (120 min): 3.17
- Fold-change AT2G34650 protein kinase PINOID (PID) (120 min): 2.52
- Fold-change AT2G36220 expressed protein (120 min): 2.76
- Fold-change AT2G37590 Dof-type zinc finger domain-containing protein (120 min): 5.81
- Fold-change AT2G38470 WRKY family transcription factor (120 min): 1.34
- Fold-change AT2G39710 aspartyl protease family protein (120 min): 2.52
- Fold-change AT2G40340; AT2G40350 [AT2G40340, encodes a member of the DREB subfamily A-2 of ERF/AP2 (120 min): 3.20
- Fold-change AT2G41250 haloacid dehalogenase-like hydrolase family protein (120 min): 0.33
- Fold-change AT2G41640 expressed protein (120 min): 2.53
- Fold-change AT2G42280 basic helix-loop-helix (bHLH) family protein (120 min): 0.28
- Fold-change AT2G43060 expressed protein, similar to cDNA bHLH transcription factor (120 min): 0.25
- Fold-change AT2G43280 far-red impaired responsive family protein (120 min): 0.48
- Fold-change AT2G43290 calmodulin-like protein (MSS3) (120 min): 1.45
- Fold-change AT2G44130 kelch repeat-containing F-box family protein (120 min): 7.72
- Fold-change AT2G44500 expressed protein (120 min): 2.19
- Fold-change AT2G45210 auxin-responsive protein-related (120 min): 0.24
- Fold-change AT2G45680 TCP family transcription factor (120 min): 0.46
- Fold-change AT2G46225 Encodes a subunit of the WAVE complex (120 min): 0.58
- Fold-change AT2G47440 DNAJ heat shock N-terminal domain-containing protein (120 min): 1.64
- Fold-change AT3G04210 disease resistance protein (TIR-NBS class), putative, (120 min): 3.17
- Fold-change AT3G09920 phosphatidylinositol-4-phosphate 5-kinase family protein (120 min): 1.07
- Fold-change AT3G12920 expressed protein (120 min): 0.31
- Fold-change AT3G13040 myb family transcription factor (120 min): 0.48
- Fold-change AT3G13510 expressed protein (120 min): 0.42
- Fold-change AT3G13980 expressed protein (120 min): 0.08
- Fold-change AT3G14370 protein kinase family protein (120 min): 2.16
- Fold-change AT3G14560 expressed protein (120 min): 0.35
- Fold-change AT3G16570 rapid alkalinization factor (RALF) family protein (120 min): 0.36
- Fold-change AT3G17860 expressed protein (120 min): 0.45
- Fold-change AT3G18830 polyol/cyclitol/monosaccharide-H+-symporte (120 min): 2.60
- Fold-change AT3G19380 U-box domain-containing protein (120 min): 0.48
- Fold-change AT3G23030 auxin-responsive protein/indoleacetic acid-induced protein 2 (IAA2) (120 min): 0.25
- Fold-change AT3G23550 MATE efflux family protein (120 min): 0.38
- Fold-change AT3G25710 basic helix-loop-helix (bHLH) family protein (120 min): 0.10
- Fold-change AT3G25900 homocysteine S-methyltransferase 1 (HMT-1) (120 min): 2.67
- Fold-change AT3G26910 hydroxyproline-rich glycoprotein family protein (120 min): 1.85
- Fold-change AT3G30180 cytochrome p450 enzyme (120 min): 0.06
- Fold-change AT3G46880 expressed protein, (120 min): 1.51
- Fold-change AT3G47800 aldose 1-epimerase family protein (120 min): 0.57
- Fold-change AT3G48970 copper-binding family protein (120 min): 0.38
- Fold-change AT3G49810 U-box domain-containing protein (120 min): 1.12
- Fold-change AT3G50650 scarecrow-like transcription factor 7 (SCL7) (120 min): 2.48
- Fold-change AT3G50660 steroid 22-alpha-hydroxylase (CYP90B1) (DWF4) (120 min): 0.02
- Fold-change AT3G50750 brassinosteroid signalling positive regulator-related (BEH1) (120 min): 0.31
- Fold-change AT3G52490 heat shock protein-related (120 min): 2.41
- Fold-change AT3G53810 lectin protein kinase (120 min): 2.23
- Fold-change AT3G54950 patatin-related, (120 min): 0.43
- Fold-change AT3G55120 chalcone-flavanone isomerase (120 min): 0.39
- Fold-change AT3G55150 exocyst subunit EXO70 family protein (120 min): 0.48
- Fold-change AT3G55840 expressed protein (120 min): 6.96
- Fold-change AT3G61460 zinc finger (C3HC4-type RING finger) family protein (BRH1) (120 min): 0.32
- Fold-change AT3G63300 expressed protein (120 min): 2.07
- Fold-change AT4G01680 myb family transcription factor (MYB55) (120 min): 0.14
- Fold-change AT4G02410 lectin protein kinase family protein (120 min): 1.55
- Fold-change AT4G08040 1-aminocyclopropane-1-carboxylate synthase, putative (120 min): 0.02
- Fold-change AT4G09460 myb family transcription factor (120 min): 3.27
- Fold-change AT4G12390 invertase/pectin methylesterase inhibitor family protein (120 min): 0.44
- Fold-change AT4G12410 auxin-responsive family protein (120 min): 0.31
- Fold-change AT4G14130 xyloglucan:xyloglucosyl transferase (120 min): 0.02
- Fold-change AT4G15975 zinc finger (C3HC4-type RING finger) family protein (120 min): 3.28
- Fold-change AT4G16146 expressed protein (120 min): 0.49
- Fold-change AT4G16563 aspartyl protease family protein (120 min): 1.65
- Fold-change AT4G16670 expressed protein (120 min): 0.34
